The values that follow come from patent publication US20240252586A1, “ENGINEERED ANTIMICROBIAL PEPTIDES AND USAGE THEREOF” (priority 2021, published 2024).

Like-named read-outs stand apart in the source and are kept apart here. Where no end group is shown, it is not given here.

One assay has as its system S. aureus. Put plainly: Broth microdilution MIC, PJI isolates (Example 1). In kind it is cell-based, Staphylococcus aureus. Conditions: RPMI; N = 3. As for the experimental part: (§1) Imipenem, levofloxacin, tigecycline, linezolid, vancomycin, oxacillin, ceftazidime, colistin, and amikacin were tested as comparators. Testing was conducted in accordance with guidelines from the Clinical and Laboratory Standards Institute (CLSI; M7 and M100). Test organisms comprised reference strains from the American Type Culture Collection, the Centers for Disease Control Antibiotic Reference Bank and clinical isolates from the Micromyx repository.

In the next assay the test system is P. aeruginosa CDC 0515. Conditions: RPMI. The method, then:
FIC test ranges were set based on broth microdilution MIC test data. FIC assay plates were prepared in accordance with CLSI guidelines for broth microdilution susceptibility testing; automated liquid handlers, and multi-channel pipettes were used to conduct serial dilutions and liquid transfers.
SEQ ID NO: 1 was tested at two concentration ranges depending on the test media. All organisms tested in CAMHB 0.002% P-80 were tested from 0.015-16 μg/mL; when tested in RPMI 0.002% P-80, the range tested was 0.004-4 μg/mL. For each SEQ ID NO: 1 mother, wells across the standard 96-well microdilution plate were filled with 150 μL of sterile saline 0.002% P-80 in columns 2 through 12. A 300 μL aliquot at 20× the highest final concentration of each dilution range to be tested, was added to each well in column 1 of the plate. The Biomek 3000 was used to make eleven 2-fold serial dilutions horizontally across each row of the plate columns 2 through 11.
The daughter plates were then completed using the Biomek FX to transfer 5 μL of drug solution from each well of the SEQ ID NO: 1 mother plates to the corresponding well in each daughter plate in a single step. […] The preparation of the daughter plates was performed for each media type; two times in total as all organisms were tested in both media types.
A standard inoculum for each organism was prepared per CLSI method. Colonies were picked up from the primary plate and a suspension was prepared equal to 0.5 McFarland turbidity standard. The suspensions were additionally diluted 1:10 in the appropriate broth. A 10 μL standardized inoculum was delivered into each well using the Biomek 3000 from low to high concentration. These inoculations yielded a final cell concentration in the daughter plates of approximately 5×10^5 CFU/mL in each well. […] Exemplary checkboard panels are seen in Table 5 and Table 6. Plates were incubated at 35° C. for 16-20 hr.
The MIC of the horizontal agent (row H) and the MIC of the vertical agent (column 12) were recorded and the wells of the growth-no growth interface for wells containing agents in combination at varying ratios were recorded by row. […] Pinpoint trailing was not interpreted as growth.
For each relevant row of the panel, the FICI was calculated as:
FICdrug A/MICdrug A+FICdrug B/MICdrug=FICI
Mean FICI values were determined for each combination tested by averaging the FICI values as observed on each row of the checkerboard assay (See Table 9, e.g., if there were FICI values for B-G, those FICI values were added together and divided by the number of rows the FICI values which in this case is 6 to get the mean FICI value for that combination).
Using the criteria described by: Odds FC. 2003. Synergy, antagonism, and what the chequerboard puts between them. J Antimicrob Chemother 52(1):1, the mean FICI for the combination was interpreted as follows: ≤0.5=synergy, >0.5-4=additive/indifferent, and >4=antagonism. […] An interpretation of indifference is consistent with growth inhibition at concentrations at or slightly below/above the MICs of the individual agents alone, resulting in a FICI value of >0.5 but […].

For another assay, the system named is A. baumannii. Put plainly: Broth microdilution MIC, PJI isolates (Example 1). In kind it is cell-based, Acinetobacter baumannii. The conditions noted are these: RPMI; N = 24. As for the experimental part:
as §1
Background: Dilution methods test growth across graded concentrations, often in twofold steps.

The next assay concerns S. epidermidis MMX 3628. The method, then:
SEQ ID NO: 1 stocks were made at 5.12 mg/mL in water adjusted to pH of 5.0 with 1% glacial acetic acid.
The test organisms (Table 7) consisted of clinical isolates from the Micromyx (MMX) repository, a reference isolate from the American Type Culture Collection (ATCC, Manassas, VA) and the Centers for Disease Control (CDC, Atlanta GA). Upon initial receipt, the isolates were streaked under suitable conditions onto agar medium appropriate to each organism. The organisms were incubated for 18-24 hr at 35° C. in ambient atmosphere. Colonies harvested from these growth plates were resuspended in the appropriate medium containing a cryoprotectant. Aliquots of each suspension were then stored frozen at −80° C. Prior to testing, all organisms were cultured onto trypticase soy agar containing 5% sheep blood. The agar plates were incubated as described above.
The Test media used for MIC and FIC were testing were cation-adjusted Mueller-Hinton broth (CAMHB) and Roswell Park Memorial Institute (RPMI-1640), buffered with 3-(N-morpholino)propanesulfonic acid (MOPS). Each test media was supplemented with 0.002% Tween-80 (P-80) prior to testing.
MIC assay plates were prepared for broth microdilution in accordance with guidelines from the Clinical and Laboratory Standards Institute (CLSI); automated liquid handlers (Biomek 3000 and Biomek FX) and multi-channel pipettes were used to conduct serial dilutions and liquid transfers. MIC assay plates were prepared using a 96-well, deep-well microdilution plate that mimicked the layout of the daughter plates.
For the mother plate, wells across the standard 96-well microdilution plate were filled with 150 μL of sterile saline 0.002% P-80 in columns 2 through 12. […] The Biomek 300 was used to make eleven 2-fold serial dilutions horizontally across each row of the plate from columns 2 through 11. The Biomek FX was then used to transfer 5 μL of the SEQ ID NO: 1 and saline 0.002% P-80 to the daughter plates.
A standardized inoculum of each organism was prepared per CLSI methods. Suspensions were prepared to equal a 0.5 McFarland standard followed by a 1:10 dilution into test medium. The inocula were dispensed into sterile reservoirs divided by length and the Biomek 3000 was used to inoculate the plates. Daughter plates were placed on the Biomek 3000 work surface in reverse orientation so that inoculation took place from low to high drug concentration. The Biomek 3000 delivered 10 μL of the diluted suspension into each well. These inoculations yielded a final cell concentration in the daughter plates of approximately 5×10^5 CFU/mL in each well. Plates were incubated at 35° C. for 16-20 hr. The microplates were viewed from the bottom using a plate viewer and the MIC was recorded as the lowest concentration of drug that inhibited visible growth of the organism.

On to RRWVRRVRRVWRRVVRVVRRWVRR [SEQ ID NO: 1], for which the MIC50 in the assay with S. aureus came out at 0.12 µg/mL; in the assay on A. baumannii, 0.25 µg/mL. Moreover, the MIC90 with S. aureus worked out at 0.12 µg/mL; with A. baumannii, 0.25 µg/mL. In addition, the FICI in the assay with P. aeruginosa CDC 0515 (checkerboard row A, with Sodium Bicarbonate at 100) worked out at 2.5; with P. aeruginosa CDC 0515 (checkerboard row B, with Sodium Bicarbonate at 50), 2.25; in the assay with P. aeruginosa CDC 0515 (checkerboard row C, with Sodium Bicarbonate at 25), 1.125. In addition, the figures for the MIC with S. epidermidis MMX 3628 (CAMHB) and with S. epidermidis MMX 3628 (RPMI) were 0.25 µg/mL and 0.12 µg/mL, respectively.

Broadly, the MIC50 is the lowest concentration that inhibits either 50% of growth or 50% of the strains tested, depending on the study. Broadly, the MIC90 is an inhibitory concentration at the 90% level, which refers to growth in some studies and to a panel of isolates in others. In general, MIC refers to the lowest concentration found to suppress growth.
